Measured values: the NIST ThermoML archive (doi:10.1021/acs.jced.8b01120)
Numbers after ± are expanded uncertainties.

Assay: xn = mol fraction of the nth substance listed
Details: 100 kPa, Liquid; for speed of sound: Single path-length method; for mass density: Vibrating tube method

CCCCN(CCCC)CCCC [tributylamine] + CCOC(C)=O
Details	mass density, 293.15 K [kg/m3]	mass density, 298.15 K [kg/m3]	mass density, 303.15 K [kg/m3]	mass density, 308.15 K [kg/m3]	mass density, 313.15 K [kg/m3]	speed of sound, 293.15 K [m/s]	speed of sound, 298.15 K [m/s]	speed of sound, 303.15 K [m/s]	speed of sound, 308.15 K [m/s]	speed of sound, 313.15 K [m/s]
x1 = 0.0502	886.034 ± 2	880.238 ± 2	874.248 ± 2	868.137 ± 2	862.077 ± 2	1168.6 ± 4	1146.5 ± 4	1124.6 ± 4	1102.3 ± 4	1080.9 ± 4
x1 = 0.104	872.134 ± 2	866.571 ± 2	860.881 ± 2	854.773 ± 2	848.939 ± 2	1172.6 ± 4	1152.6 ± 4	1129.9 ± 4	1108.7 ± 4	1088.3 ± 4
x1 = 0.2041	850.473 ± 2	845.352 ± 2	840.168 ± 2	834.885 ± 2	829.51 ± 2	1182.8 ± 4	1162.8 ± 4	1140.7 ± 4	1119.9 ± 4	1098.8 ± 4
x1 = 0.3022	834.126 ± 2	829.336 ± 2	824.418 ± 2	819.471 ± 2	814.442 ± 2	1193.2 ± 4	1172.8 ± 4	1151.3 ± 4	1131.6 ± 4	1109.3 ± 4
x1 = 0.402	820.855 ± 2	816.274 ± 2	811.568 ± 2	806.892 ± 2	802.143 ± 2	1203.3 ± 4	1182.8 ± 4	1161.7 ± 4	1141.7 ± 4	1120.9 ± 4
x1 = 0.5017	810.036 ± 2	805.655 ± 2	801.215 ± 2	796.734 ± 2	792.21 ± 2	1213.4 ± 4	1194 ± 4	1172.7 ± 4	1152.9 ± 4	1132.9 ± 4
x1 = 0.6003	801.163 ± 2	796.948 ± 2	792.639 ± 2	788.358 ± 2	784.016 ± 2	1223 ± 4	1203.8 ± 4	1182.3 ± 4	1163.6 ± 4	1143.3 ± 4
x1 = 0.7004	793.656 ± 2	789.584 ± 2	785.465 ± 2	781.294 ± 2	777.107 ± 2	1233.6 ± 4	1214.6 ± 4	1193.2 ± 4	1174.6 ± 4	1154.3 ± 4
x1 = 0.8009	787.308 ± 2	783.362 ± 2	779.404 ± 2	775.399 ± 2	771.342 ± 2	1244 ± 4	1224.7 ± 4	1205.4 ± 4	1185.6 ± 4	1166.1 ± 4
x1 = 0.9011	781.785 ± 2	777.942 ± 2	774.089 ± 2	770.192 ± 2	766.343 ± 2	1253.8 ± 4	1234.6 ± 4	1215.4 ± 4	1196.5 ± 4	1177.7 ± 4
x1 = 1	777.006 ± 2	773.283 ± 2	769.552 ± 2	765.811 ± 2	762.061 ± 2	1264.2 ± 4	1245.2 ± 4	1226.2 ± 4	1207.4 ± 4	1188.8 ± 4

CCCCCOC(C)=O [pentyl ethanoate] + CCCCN(CCCC)CCCC
Details	mass density, 293.15 K [kg/m3]	mass density, 298.15 K [kg/m3]	mass density, 303.15 K [kg/m3]	mass density, 308.15 K [kg/m3]	mass density, 313.15 K [kg/m3]	speed of sound, 293.15 K [m/s]	speed of sound, 298.15 K [m/s]	speed of sound, 303.15 K [m/s]	speed of sound, 308.15 K [m/s]	speed of sound, 313.15 K [m/s]
x2 = 0	876.248 ± 2	871.32 ± 2	865.782 ± 2	860.581 ± 2	855.357 ± 2	1243 ± 4.1	1220.7 ± 4.1	1196.8 ± 4.1	1174.2 ± 4.1	1152.3 ± 4.1
x2 = 0.0575	865.692 ± 2	860.668 ± 2	855.073 ± 2	849.94 ± 2	844.475 ± 2	1244.2 ± 4.1	1221.5 ± 4.1	1197.8 ± 4.1	1175.7 ± 4.1	1153.7 ± 4.1
x2 = 0.1106	856.436 ± 2	851.526 ± 2	846.117 ± 2	841.075 ± 2	835.813 ± 2	1245.2 ± 4.1	1222.5 ± 4.1	1198.8 ± 4.1	1177.2 ± 4.1	1155.7 ± 4.1
x2 = 0.2013	842.712 ± 2	837.942 ± 2	832.841 ± 2	827.884 ± 2	823.003 ± 2	1247.7 ± 4.1	1224.3 ± 4.1	1201.8 ± 4.1	1179.7 ± 4.1	1158.8 ± 4.1
x2 = 0.3229	827.693 ± 2	823.116 ± 2	818.312 ± 2	813.425 ± 2	808.951 ± 2	1249.6 ± 4.1	1227.8 ± 4.1	1205.4 ± 4.1	1184.1 ± 4.1	1163.1 ± 4.1
x2 = 0.4109	818.21 ± 2	813.799 ± 2	809.136 ± 2	804.737 ± 2	800.073 ± 2	1251.4 ± 4.1	1229.9 ± 4.1	1207.8 ± 4.1	1187.2 ± 4.1	1167.2 ± 4.1
x2 = 0.5032	809.565 ± 2	805.278 ± 2	800.772 ± 2	796.389 ± 2	791.981 ± 2	1253.8 ± 4.1	1232.5 ± 4.1	1210.5 ± 4.1	1190.4 ± 4.1	1170 ± 4.1
x2 = 0.6202	799.842 ± 2	795.692 ± 2	791.362 ± 2	787.138 ± 2	782.852 ± 2	1255.6 ± 4.1	1235 ± 4.1	1214.6 ± 4.1	1194.1 ± 4.1	1174.1 ± 4.1
x2 = 0.7403	791.114 ± 2	787.079 ± 2	782.913 ± 2	778.804 ± 2	774.698 ± 2	1258.8 ± 4.1	1238.5 ± 4.1	1217.8 ± 4.1	1198.2 ± 4.1	1178.9 ± 4.1
x2 = 0.8105	786.994 ± 2	782.989 ± 2	778.908 ± 2	774.712 ± 2	770.827 ± 2	1259.7 ± 4	1240.2 ± 4	1219.9 ± 4	1201 ± 4	1181.2 ± 4
x2 = 0.9205	780.619 ± 2	776.717 ± 2	772.741 ± 2	768.959 ± 2	764.799 ± 2	1262.4 ± 4	1243.1 ± 4	1223 ± 4	1204.5 ± 4	1185.6 ± 4

CCCCN(CCCC)CCCC [tributylamine] + CCCOC(C)=O
Details	mass density, 293.15 K [kg/m3]	mass density, 298.15 K [kg/m3]	mass density, 303.15 K [kg/m3]	mass density, 308.15 K [kg/m3]	mass density, 313.15 K [kg/m3]	speed of sound, 293.15 K [m/s]	speed of sound, 298.15 K [m/s]	speed of sound, 303.15 K [m/s]	speed of sound, 308.15 K [m/s]	speed of sound, 313.15 K [m/s]
x1 = 0.0509	876.475 ± 2.1	871.105 ± 2.1	865.344 ± 2.1	859.857 ± 2.1	854.206 ± 2.1	1193.8 ± 4.4	1167.9 ± 4.4	1148.6 ± 4.4	1127.2 ± 4.4	1105.2 ± 4.4
x1 = 0.1204	861.989 ± 2.1	856.798 ± 2.1	851.275 ± 2.1	845.985 ± 2.1	840.603 ± 2.1	1198.3 ± 4.4	1173.2 ± 4.4	1154.3 ± 4.4	1132.9 ± 4.4	1111.2 ± 4.4
x1 = 0.2066	846.28 ± 2.1	841.395 ± 2.1	836.192 ± 2.1	831.184 ± 2	826.095 ± 2	1205.3 ± 4.3	1180.5 ± 4.3	1161.6 ± 4.3	1140.7 ± 4.3	1119.1 ± 4.3
x1 = 0.306	831.793 ± 2	827.121 ± 2	822.274 ± 2	817.519 ± 2	812.694 ± 2	1212 ± 4.3	1188.5 ± 4.3	1169.1 ± 4.3	1148.2 ± 4.3	1127.6 ± 4.3
x1 = 0.4043	819.864 ± 2	815.394 ± 2	810.785 ± 2	806.239 ± 2	801.63 ± 2	1219.3 ± 4.2	1196.3 ± 4.2	1177 ± 4.2	1156.6 ± 4.2	1136 ± 4.2
x1 = 0.5015	809.872 ± 2	805.603 ± 2	801.221 ± 2	796.775 ± 2	792.345 ± 2	1226.3 ± 4.2	1204.6 ± 4.2	1185.2 ± 4.2	1165.4 ± 4.2	1144.9 ± 4.2
x1 = 0.6007	801.215 ± 2	797.082 ± 2	792.841 ± 2	788.618 ± 2	784.342 ± 2	1233.2 ± 4.1	1212.4 ± 4.1	1192.9 ± 4.1	1172.6 ± 4.1	1153.4 ± 4.1
x1 = 0.7102	793.047 ± 2	789.025 ± 2	784.905 ± 2	780.824 ± 2	776.694 ± 2	1241.2 ± 4.1	1221.4 ± 4.1	1201.8 ± 4.1	1182.1 ± 4.1	1162.6 ± 4.1
x1 = 0.8007	787.307 ± 2	783.381 ± 2	779.377 ± 2	775.39 ± 2	771.367 ± 2	1248.5 ± 4.1	1228.5 ± 4.1	1209.3 ± 4.1	1190 ± 4.1	1171.2 ± 4.1
x1 = 0.9008	781.809 ± 2	777.98 ± 2	774.088 ± 2	770.204 ± 2	766.273 ± 2	1255.7 ± 4.1	1236.5 ± 4.1	1217.8 ± 4.1	1197.9 ± 4.1	1179.1 ± 4.1
x1 = 1	777.006 ± 2	773.283 ± 2	769.552 ± 2	765.811 ± 2	762.061 ± 2	1264.2 ± 4	1245.2 ± 4	1226.2 ± 4	1207.4 ± 4	1188.8 ± 4
